Measured values taken from patent publication US9089570B2, “Compositions for treating cancers having acquired resitance to prior chemotherapeutic and targeted drugs using carboxyamidotriazole orotate” (TACTICAL THERAPEUTICS INC, priority 2013, dated 2015).

Legend:
[1] = system: Akt and Erk1/2 phosphorylation; details: exosomes-stimulated HUVEC cell; Corrado et al, 2012; cited from earlier work
[2] = system: refractory renal cell carcinoma; experiment: Phase I clinical study of CTO, patient with refractory renal cell carcinoma; format: in vivo, human; details: 75 mg/m2/day
Method: (§1) This invention contemplates treating these cancers and other cancers at any stage from the discovery of the cancer to the advanced stage, starting with the first step of carrying out the genotyping of the primary and secondary tumors. The effectiveness of the CTO treatment is determined by controlled clinical studies. The cancers are evaluated by measuring tumors no more than 14 days before the start of the treatment, and evaluated after 2 cycles of 28 days after day 1 of the administration of the first dose of CTO. The tumor size is measured by the most accurate measurement such as PET-CT, CT scan, MRI scan, x-ray, ultrasound, etc. […]
(§2) “Partial response” means a) for bidimensionally measurable tumors, a decrease of at least 50% in the sum of the products of the largest perpendicular diameters of all measurable tumors as determined by two observations not less than four weeks apart, b) for undimensionally measurable tumors, a decrease by at least 50% in the sum of the largest diameters of all tumors as determined by two observation not less than four weeks apart. […]
After having established the baseline clinical parameters, the patient was given 75 mg/m2/day for a period of 28 days for two cycles and the tumor was measured. […]

[3] = system: refractory metastatic colorectal cancer (BRAF V660E); experiment: Phase I clinical study of CTO, patient with refractory metastatic colorectal cancer; format: in vivo, human; details: 285 mg/m2/day
Method: as §1, §2
After having established the baseline clinical parameters, the patient was given 285 mg/m2/day for a period of 28 days for two cycles and the tumor was measured. […]

[4] = system: refractory NSCLC tumor (EGFR, ELREATS 746-752 V (exon 19)); experiment: Phase I clinical study of CTO, patient with refractory NSCLC (EGFR exon 19); format: in vivo, human; details: EGFR exon 19 mutation, 219 mg/m2/day
Method: as §1, with “etc. The criteria for evaluating response are described in the revised Response Evaluation Criteria in Solid Tumors Guidelines, Eisenhauer et al, 1990 and by the Macdonald Criteria for response to high grade gliomas, Macdonald et al, 1990.” for “etc.”
as §2

[5] = system: refractory NSCLC tumor (PI3KCA, E545K); experiment: Phase I clinical study of CTO, patient with refractory NSCLC (PI3KCA, E545K); format: in vivo, human; details: 219 mg/m2/day
Method: as §1, §2
In the present invention, a patient with NSCLC who had received prior treatment with paclitaxel, carboplatin erlotinib and docetaxel. […] After having established the baseline clinical parameters, the patient was given 219 mg/m2/day for a period of 28 days for two cycles and the tumor was measured. […]

[6] = system: refractory head and neck tumor (PI3KCA, E545K); experiment: Phase I clinical study of CTO, patient with refractory head and neck cancer; format: in vivo, human; details: 285 mg/m2/day
[7] = system: imatinib mesylate-resistant chronic myeloid leukemia cells; details: by down-regulating bcr-abl, Alessandro et al, 2008; cited from earlier work
[8] = FOLFIRI (fluorouracil, leucovorin, irinotecan) regimen; Carrato et al 2013; cited from earlier work
head and neck cancer = details: cited from earlier work

Question: With `NC(=O)c1nnn(Cc2cc(Cl)c(C(=O)c3ccc(Cl)cc3)c(Cl)c2)c1N.O=C(O)c1cc(=O)[nH]c(=O)[nH]1` [CTO, carboxyamidotriazole orotate] as the molecule, how does the “Akt and Erk1/2 phosphorylation” value [1] read?
Answer: inhibits

Question: And the “duration of stable disease and partial response” value (“duration” for short) ([2]; 28-day cycles, CTO continued)?
Answer: over twelve

Question: And the “tumor response measured after two cycles” value ([2]; prior IL-2, pegylated IFN, sorafenib, sunitnib, erlotinib, torisel, 28 days, two cycles)?
Answer: responded by not progressing

Question: What about the “duration” value ([3]; 28-day cycles) of the same molecule?
Answer: six

Question: And the “tumor response measured after two cycles” value ([3]; prior leucovorin, fluorouracil, oxaliplatin, bevacizumab, cetuximab, capecitabine, panitumumab, irinotecan, 28 days, two cycles)?
Answer: responded to CTO by not progressing

Question: And the “duration” value ([4]; 28-day cycles)?
Answer: more than twelve

Question: What about the “tumor response measured after two cycles” value ([4]; prior carboplatin, paclitaxel, docetaxel, erlotinib, cisplatin, gemcitamide, premetrexed, 28 days, two cycles) of the same molecule?
Answer: responded by not progressing

Question: And the “duration” value ([5]; 28-day cycles)?
Answer: more than twelve

Question: And the “tumor response measured after two cycles” value ([5]; prior paclitaxel, carboplatin, erlotinib, docetaxel, 28 days, two cycles)?
Answer: responded by not progressing

Question: What about the “duration” value ([6]; 28-day cycles) of the same molecule?
Answer: more than six

Question: What about the “tumor response measured after two cycles” value ([6]; PI3KCA E545K, prior cetuximab, cisplatin, taxotere, 28 days, two cycles) of the same molecule?
Answer: responded by not progressing

Question: Which apoptosis [7] does the source give for `NC(=O)c1nnn(Cc2cc(Cl)c(C(=O)c3ccc(Cl)cc3)c(Cl)c2)c1N` [CAI, Carboxyamidotriazole] here?
Answer: induces apoptosis

Question: For `CCN(CC)CCNC(=O)c1c(C)[nH]c(/C=C2\C(=O)Nc3ccc(F)cc32)c1C` [Sunitnib], which “superiority over FOLFIRI alone” value [8] is on record?
Answer: did not prove superior over FOLFIRI alone

Question: For `C#Cc1cccc(Nc2ncnc3cc(OCCOC)c(OCCOC)cc23)c1` [erlotinib], which “improvement when added to chemotherapy and radiotherapy” value (head and neck cancer) is on record?
Answer: no improvement
